{"source": "patent US20250049733A1", "about": "“PHARMACEUTICAL COMPOSITION FOR THE TREATMENT OF INFECTIOUS RESPIRATORY DISEASES CAUSED BY INFLUENZA AND SARS-COV-2, AMONG OTHERS” (ALPARIS, S.A. DE C.V., priority 2021, published 2025)", "origin": "cited, not measured here", "key": {"[1]": {"tested_on": "Respiratory Syncytal Virus (RSV)"}, "[2]": {"tested_on": "tumor necrosis factor-alpha (TNF-α) and interleukin-6 (IL-6)", "settings": "randomized controlled trials"}, "rheumatoid arthritis": {"tested_on": "rheumatoid arthritis", "settings": "8 weeks of treatment with 1 g of curcumin daily; meta-analysis"}, "[3]": {"settings": "in vivo"}}, "data": [{"molecule": "COc1cc(/C=C/C(=O)CC(=O)/C=C/c2ccc(O)c(OC)c2)ccc1O", "note": "[curcumin, (1E,6E)-1,7-bis(4-hydroxy-3-methoxyphenyl)-1,6-heptadiene-3,5-dione]", "values": [{"measurement": "IC50, antiviral action against SARS-CoV2", "setting": "SARS-CoV2 viruses", "value": 7.9, "unit": "µg/mL"}, {"measurement": "IC50, antiviral action against Respiratory Syncytal Virus (RSV)", "setting": "[1]", "value": 10, "unit": "µg/mL"}, {"measurement": "IC50, antiviral action against influenza", "setting": "influenza", "value": 0.17, "unit": "µg/mL"}, {"measurement": "IC50, antiviral action against Hepatitis", "setting": "Hepatitis", "value": 1.68, "unit": "µg/mL"}, {"measurement": "IC50, antiviral action against Herpes simplex virus", "setting": "Herpes simplex virus", "value": 11.05, "unit": "µg/mL"}, {"measurement": "secretion of TNF-α and IL-6", "setting": "[2]", "value": "significantly reduces"}, {"measurement": "symptoms associated with inflammation in rheumatoid arthritis", "setting": "rheumatoid arthritis", "value": "can reduce symptoms associated with inflammation"}, {"measurement": "half-life", "setting": "[3]", "value": "about 8 hours"}]}]}
